Data as given in PubChem BioAssay (NCI).
Several values for one entry are separate records, joined by “and”; a condition that tells them apart may be missing. Equal values may be shown once.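 Cells were grown in 96-well plates and exposed to each compound for 48 hours at five concentrations; endpoints were interpolated linearly between bracketing concentrations, or set to the highest concentration if not reached. GI50: concentration for 50% inhibition of growth. The concentration for full growth arrest is given as TGI.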

What was measured:
Experiment in all cases: NCI-60 cell line screen, 48 h
ACHN renal = system: ACHN renal
COLO 205 colon = system: COLO 205 colon
EKVX NSCLC = system: EKVX NSCLC
HCT-15 colon = system: HCT-15 colon
IGROV1 ovarian = system: IGROV1 ovarian
NCI-H23 lung = system: NCI-H23 lung
NCI-H522 lung = system: NCI-H522 lung
RXF 393 renal = system: RXF 393 renal
SW-620 colon = system: SW-620 colon
UACC-62 melanoma = system: UACC-62 melanoma

SMILES | TGI (ACHN renal) | TGI (COLO 205 colon) | TGI (EKVX NSCLC) | TGI (HCT-15 colon) | TGI (IGROV1 ovarian) | TGI (NCI-H23 lung) | TGI (NCI-H522 lung) | TGI (RXF 393 renal) | TGI (SW-620 colon) | TGI (UACC-62 melanoma) | GI50 (ACHN renal) | GI50 (COLO 205 colon) | GI50 (EKVX NSCLC) | GI50 (HCT-15 colon) | GI50 (IGROV1 ovarian) | GI50 (NCI-H23 lung) | GI50 (NCI-H522 lung) | GI50 (RXF 393 renal) | GI50 (SW-620 colon) | GI50 (UACC-62 melanoma)
O=C(O)c1ccccc1NC(=S)c1ccccc1 | 84.6 µM | > 100 µM | > 100 µM | > 100 µM | 98.9 µM | > 100 µM | 39.8 µM | > 100 µM | > 100 µM | > 100 µM | – | – | – | – | – | – | – | – | – | –
N/C(=N\OC(=O)c1ccccc1)C(Cc1ccccc1)C(=O)NOC(=O)c1ccccc1 (stereo not given) | 3.58 µM | 14.7 µM | 6.52 µM | 10.5 µM | 2.09 µM | 17.4 µM | 3.47 µM | 5.6 µM | 13.8 µM | 7.53 µM | 1.66 µM | 3.94 µM | 2.23 µM | 2.21 µM | 0.43 µM | 3.54 µM | 1.7 µM | 1.97 µM | 3.02 µM | 2.49 µM
C[C@@H]1Cc2cc(O)ccc2[C@H]2CC[C@]3(C)/C(=C/COCCN(C)C)CC[C@H]3[C@H]12 (tested in a mixture with another compound) | 0.201 µM | 1.03 µM | 0.472 µM | 0.55 µM | 1.21 µM | 0.36 µM | 0.735 µM | 0.316 µM | 0.482 µM | 0.625 µM | 0.0429 µM | 0.363 µM | 0.145 µM | 0.205 µM | 0.379 µM | 0.107 µM | 0.131 µM | 0.105 µM | 0.214 µM | 0.25 µM
O=C(O)CCNS(=O)(=O)c1ccc([N+](=O)[O-])cc1 | > 100 µM | > 100 µM | > 100 µM | > 100 µM | > 100 µM | > 100 µM | > 100 µM | > 100 µM | > 100 µM | > 100 µM | – | – | – | – | – | – | – | – | – | –
CSc1ccc(C2=NN(C(C)=O)C(c3ccc(-c4ccc(Cl)cc4)o3)C2)cc1 (stereo not given) | > 100 µM | > 100 µM | > 100 µM | > 100 µM | > 100 µM | > 100 µM | 60.3 µM | > 100 µM | > 100 µM | > 100 µM | 37.1 µM | 36.2 µM | 50.2 µM | 23.2 µM | 6.06 µM | 86.1 µM | 18.7 µM | 44.6 µM | 77.7 µM | 20.1 µM
CCOc1ccc(NC(=O)CCc2nnc(SC)o2)cc1 | > 100 µM | > 100 µM | > 100 µM | > 100 µM | > 100 µM | > 100 µM | > 100 µM | > 100 µM | > 100 µM | > 100 µM | – | – | – | – | – | – | – | – | – | –
O=C1C(OCCOc2ccccc2)=C(OCCOc2ccccc2)C(=O)c2ccccc21 | > 100 µM | > 100 µM | > 100 µM | > 100 µM | > 100 µM | 24.3 µM | > 100 µM | > 100 µM | > 100 µM | > 100 µM | 5.09 µM | 41.9 µM | > 100 µM | 3.14 µM | > 100 µM | 1.82 µM | 3.93 µM | 40.2 µM | 4.7 µM | 6.79 µM
CN1CCN(CCCCCN=c2cc3c(=O)n(CCCCCN4CCN(C)CC4)c(=O)c4c(NCCCCCN5CCN(C)CC5)cc5c(O)n(CCCCCN6CCN(C)CC6)c(=O)c2c5c4-3)CC1 | > 100 µM | 8.07 µM | 17.2 µM | > 100 µM | 29.4 µM | 46.3 µM | 3.93 µM | > 100 µM | 31.6 µM | 15.7 µM | 43.3 µM | 2.31 µM | 2.93 µM | > 100 µM | 5.7 µM | 6.65 µM | 1.46 µM | 24.3 µM | 3.31 µM | 4.19 µM
COc1cccc(Oc2ccccc2NC(=O)CNC(=O)c2cccc3ccccc23)c1 | > 25 µM | 0.949 µM | > 25 µM | > 25 µM | > 25 µM | > 25 µM | 2.02 µM | 2.19 µM | > 25 µM | > 25 µM | 0.398 µM | 0.283 µM | 1.28 µM | 0.129 µM | 1.04 µM | 0.735 µM | 0.176 µM | 0.165 µM | 0.164 µM | 0.209 µM
Oc1cc(-n2cccn2)c(O)cc1-n1cccn1 | 37.4 µM | 37.9 µM | > 83.3 µM | 51.6 µM | > 75.9 µM | 68.4 µM | 26.8 µM | 37.8 µM | 42.9 µM | 71.3 µM | – | – | – | – | – | – | – | – | – | –
COc1ccc(/C=C(/C)[N+](=O)[O-])cc1OC | 4.19 µM and 2.82 µM | 3.28 µM and 3.05 µM | 28.6 µM and 19.8 µM | 5.47 µM and 2.67 µM | 7.75 µM and 5.68 µM | 4.24 µM and 4.6 µM | 1.14 µM and 2.26 µM | 3.16 µM and 2.78 µM | 3.04 µM and 2.7 µM | 3.62 µM and 3.89 µM | 2.18 µM and 1.46 µM | 1.78 µM and 1.5 µM | 10.9 µM and 5.4 µM | 2.08 µM and 1.02 µM | 2.79 µM and 2.26 µM | 1.9 µM and 1.98 µM | 0.456 µM and 0.48 µM | 1.7 µM and 1.42 µM | 1.56 µM and 1.1 µM | 1.78 µM and 1.72 µM
